Data: patent US8034797B2, “Triazene compounds for the treatment of cancer” (Trin Therapeutics GmbH, priority 2007, dated 2011)
Values after ≈ are worked out from the molar mass of the structure shown. Where a name gives a salt, the structure may show the parent alone. Blank lines part the entries; values can stand above or below the compound they belong to.

Key:
MAXF 401 = MAXF 401 breast tumour xenograft in nude mice; assay type: in vivo; conditions: for Mortality: deaths/animals
Procedure: All the tests were carried out using female nude mice under standard conditions for the keeping of animals with controlled illumination and temperature. The animals were given water and food as desired.
(§1) The increase in the volume of the individual tumours was measured using microcallipers, and the size of the tumour was calculated according to the formula a*b^2/2 (where a is the largest diameter of the tumour and b is the vertical axis). When the tumour volume had increased to 80-120 mm^3, the animals were allocated at random into test groups of in each case 6 animals.
The test compounds (in the form of sodium salts) were dissolved in a saline solution, and 5% Klucel (hydroxypropylcellulose) was added in order to dissolve all the test compounds in the same carrier. […] A volume of 10 ml/kg body weight was injected. Animals that received only the carrier served as control. The test compounds were treated according to the scheme of twice weekly administration over a period of […]. The tumour volume and the body weight were checked twice weekly, and the relative tumour volumes were calculated as the ratio of tumour size to body weight.
On the basis of the relative tumour volumes of the animals treated with the test compounds compared with the tumour volumes of the controls treated only with the carrier, the T/C values were calculated and were used as the index of anti-tumour activity.
Subcutaneous implantation of the tumour and the determination of the tumour volume were carried out as described hereinbefore. The above-mentioned salts of the test substance were administered by ip injection twice weekly in the mentioned doses in the form of an aqueous solution, over a period of 4 weeks. […]
Subcutaneous implantation of the tumour and the determination of tumour volumes were carried out as described hereinbefore. The test substance was administered by ip injection twice weekly in the mentioned doses in the form of the sodium salt as an aqueous solution, over a period of 4 weeks.

Tumour-carrying mice = assay: Nephrological tolerability (kidney post-mortem and histology); assay type: in vivo
Procedure: A control group was treated only with the carrier according to a twice weekly treatment scheme.
When the 28-day treatment period had ended, a post-mortem was carried out on the mice. […] The kidneys of all the animals in the test groups were removed by operation, fixed in formalin according to standard methods, embedded in paraffin and processed for HE staining.

Solubility in water = assay type: physicochemical; conditions: for solubility: water
MEXF 462 = MEXF 462 melanoma xenograft model; assay type: in vivo, nude mice; conditions: for outcome of treatment: equimolar doses ip twice weekly over 4 weeks
Procedure: as §1, with “Breast tumours (MAXF 401) were implanted subcutaneously into the rear members of the mice aged 10 weeks. The” for “The”, “animals. […]” for “animals.”
The anti-tumour activity of the compounds was determined in the MEXF 462 xenograft tumour model in the nude mouse. Subcutaneous implantation of the tumour and the determination of tumour volumes were carried out as described hereinbefore. Groups of in each case 8 animals were used.
Equimolar amounts of the compound of Example 8 were administered ip twice weekly in the form of a 5% DMSO solution over the mentioned period.
The progression over time of the anti-tumour action, expressed in % of the tumour volume at the beginning of the test, over the period of therapy is shown in Table 3.

Solubility in DMSO = assay type: physicochemical; conditions: organic solvent or mixture, room temperature
[1] = sodium salts ip, equimolar to 350 mg/kg of comparison compound, twice weekly over 5 weeks, 100% = no activity
[2] = sodium salts ip, equimolar to 350 mg/kg of comparison compound, twice weekly over 5 weeks
[3] = kidney histology after 28-day twice weekly ip treatment, equimolar to 450 mg of stock composition, affected/animals
[4] = room temperature, read-out: solubility in water at room temperature

Compound: CN(C)N=Nc1ccc(C(=O)c2ccc(OCC(=O)[O-])cc2)cc1.[Na+] [Ex. 30 of DE 1793115A]
reduction in the tumour volume development (MAXF 401; 350 mg/kg ip): 50%
T/C value (MAXF 401; [1]): 48.5%
Mortality (MAXF 401; [2]): 2/6
macroscopic findings of the kidneys at post-mortem (Tumour-carrying mice; after 28-day treatment period): macroscopic changes (swelling, local discolouration) of the kidneys
renal histology finding (Tumour-carrying mice; after 28-day treatment period): Marked focal tubular necrosis of the kidneys
Acute single-cell necrosis (Tumour-carrying mice; [3]): 4/9
Focal tubular necrosis (Tumour-carrying mice; [3]): 3/9

Compound: CN(C)/N=N/c1ccc(C(=O)c2ccc(OCC(=O)NCC(=O)O)cc2)cc1 [Example 4, {2-[4-(4-[(1E)-3,3-dimethyl-1-triazenyl]-benzoyl)-phenoxy]-acetylamino}acetic acid]
T/C value (MAXF 401; [1]): 12.6%
Mortality (MAXF 401; [2]): 0/6

Compound: CN(C)/N=N/c1ccc(C(=O)c2ccc(OCC(=O)NCC(=O)O)cc2)cc1 [TRIS salt]
solubility in water at 25° C. (Solubility in water; 25° C.): about 250 g/litre
solubility (Solubility in water; [4]): 250 mg/mL
remission (MAXF 401; TRIS salt ip twice weekly, equimolar doses of 360, 400 and 500 mg/kg of the sodium salt, all doses): complete remission

Compound: CN(C)N=Nc1ccc(C(=O)c2ccc(OCC(=O)[O-])cc2)cc1.[Na+] [Preparation 1]
solubility (Solubility in water; recrystallisation from water, read-out: Solubility (converted)): 40 mg/mL

Compound: CN(C)/N=N/c1ccc(C(=O)c2ccc(OCC(=O)NCC(=O)O)cc2)cc1 [Example 4a]
salting-out effect in 0.9% NaCl (Solubility in water; 0.9% NaCl): pronounced salting-out effect
solubility in water at 25° C. (Solubility in water; 25° C.): about 4 g/litre
solubility in water at 25° C. (Solubility in water; 25° C.; listed as Example 4a)): 4 mg/mL (≈ 10.4 mM)
T/C value (MAXF 401; 400 mg/kg sodium salt ip twice weekly, after 4 weeks' therapy): 12
remission (MAXF 401; 500 mg/kg sodium salt ip twice weekly, within 3 weeks of treatment): complete remission

Compound: CN(C)/N=N/c1ccc(C(=O)c2ccc(OCCC(=O)NCC(=O)O)cc2)cc1 [Example 2, {3-[4(4-[(1E)-3,3-dimethyl-1-triazenyl]-benzoyl)-phenoxyl]propionylamino} acetic acid]
T/C value (MAXF 401; [1]): 3.4%
Mortality (MAXF 401; [2]): 0/6

Compound: CN(C)/N=N/c1ccc(C(=O)c2ccc(OCCC(=O)NCCS(=O)(=O)[O-])cc2)cc1.[Na+] [Example 9]
solubility (Solubility in water; [4]): 666 mg/mL

solubility (Solubility in water; 25 °C, 25° C., read-out: solubility in water at 25° C.): ~400 mg/mL
Compound: CN(C)/N=N/c1ccc(C(=O)c2ccc(OCCC(=O)NC(CCC(N)=O)C(=O)O)cc2)cc1 (centres unmarked) [Example 7, 4-carbamoyl-2-{3-[4-(4-[(1E)-3,3-dimethyl-1-triazenyl]-benzoyl)-phenoxy]-propionylamino}-butanoic acid sodium salt]
tumour volume in % of the tumour volume at the beginning of the test, Mean (MEXF 462; day 0, 350 mg/kg ip twice weekly): 100%
tumour volume in % of the tumour volume at the beginning of the test, Mean (MEXF 462; day 3, 350 mg/kg ip twice weekly): 278%
tumour volume in % of the tumour volume at the beginning of the test, Mean (MEXF 462; day 7, 350 mg/kg ip twice weekly): 172%
tumour volume in % of the tumour volume at the beginning of the test, Mean (MEXF 462; day 11, 350 mg/kg ip twice weekly): 73%
tumour volume in % of the tumour volume at the beginning of the test, Mean (MEXF 462; day 14, 350 mg/kg ip twice weekly): 49%
tumour volume in % of the tumour volume at the beginning of the test, Mean (MEXF 462; day 18, 350 mg/kg ip twice weekly): 24%
tumour volume in % of the tumour volume at the beginning of the test, Mean (MEXF 462; day 21, 350 mg/kg ip twice weekly): 6%
tumour volume in % of the tumour volume at the beginning of the test, Mean (MEXF 462; day 25, 350 mg/kg ip twice weekly): 2%
tumour volume in % of the tumour volume at the beginning of the test, Mean (MEXF 462; day 28, 350 mg/kg ip twice weekly): 0.3%
outcome of treatment (MEXF 462): complete remission

melting point: 104 to 105 °C
Compound: COC(=O)CNC(=O)CCOc1ccc(C(=O)c2ccc(/N=N/N(C)C)cc2)cc1 [Example 1]

solubility (Solubility in DMSO): 833 mg/mL (≈ 2100 mM)
Compound: CN(C)/N=N/c1ccc(C(=O)c2ccc(OCCC(=O)NCC(N)=O)cc2)cc1 [Example 8]
tumour volume in % of the tumour volume at the beginning of the test, Mean (MEXF 462; day 0, 285 mg/kg ip twice weekly, 5% DMSO solution): 100%
tumour volume in % of the tumour volume at the beginning of the test, Mean (MEXF 462; day 3, 285 mg/kg ip twice weekly, 5% DMSO solution): 293%
tumour volume in % of the tumour volume at the beginning of the test, Mean (MEXF 462; day 7, 285 mg/kg ip twice weekly, 5% DMSO solution): 369%
tumour volume in % of the tumour volume at the beginning of the test, Mean (MEXF 462; day 11, 285 mg/kg ip twice weekly, 5% DMSO solution): 174%
tumour volume in % of the tumour volume at the beginning of the test, Mean (MEXF 462; day 14, 285 mg/kg ip twice weekly, 5% DMSO solution): 134%
tumour volume in % of the tumour volume at the beginning of the test, Mean (MEXF 462; day 18, 285 mg/kg ip twice weekly, 5% DMSO solution): 107%
tumour volume in % of the tumour volume at the beginning of the test, Mean (MEXF 462; day 21, 285 mg/kg ip twice weekly, 5% DMSO solution): 151%
tumour volume in % of the tumour volume at the beginning of the test, Mean (MEXF 462; day 25, 285 mg/kg ip twice weekly, 5% DMSO solution): 172%
tumour volume in % of the tumour volume at the beginning of the test, Mean (MEXF 462; day 28, 285 mg/kg ip twice weekly, 5% DMSO solution): 271%
outcome of treatment (MEXF 462): pronounced slowing down of tumour growth
